Literature values in publication PMC10147685, “Safety, tolerability, and pharmacokinetics of Aurora kinase B inhibitor AZD2811: a phase 1 dose-finding study in patients with advanced solid tumours” (British Journal of Cancer, 2023).

Assays:
[1] = tested on: patients with advanced solid tumours; design: method as in PMID 27349901; details: cited from earlier work
advanced solid tumours = tested on: advanced solid tumours; design: method as in PMID 22661287; details: cited from earlier work

Compound | Objective responses [1] | Patients with SD ([1]; depending on the treatment schedule) | Objective responses (advanced solid tumours) | Patients with SD (advanced solid tumours)
CC(C)NC(=O)[C@H]1CCC[C@H]1Nc1nc(Nc2ccc(C(=O)N(C)C3CCN(C)CC3)cc2)ncc1C(F)(F)F [BI 811283] | no objective responses | 30–33% | – | –
CCN(CCCOc1ccc2c(Nc3cc(CC(=O)Nc4cccc(F)c4)n[nH]3)ncnc2c1)CCOP(=O)(O)O [barasertib] | – | – | no objective responses | 23%
